# Patent US20100298141A1, “SUBSTITUTED PYRIDINE N-OXIDE HERBICIDES” (E. I. DU PONT DE NEMOURS AND COMPANY, priority 2007, published 2010)
# Key:
# yellow nutsedge = assay: Test C pre-/postemergence test; format: in vivo, Cyperus esculentus
# Method in brief: (§1)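 Seeds were planted and treated preemergence with test chemical in a non-phytotoxic solvent mixture containing surfactant. Postemergence applications of the same formulation went onto plants 2 to 18 cm tall (1- to 4-leaf stage). A dash marks no test result.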
# green foxtail = assay: Test C pre-/postemergence test; format: in vivo, Setaria viridis
# Method in brief: as §1
# velvetleaf = assay: Test A pre-/postemergence greenhouse test; format: in vivo, Abutilon theophrasti; details: for Plant response rating, Velvetleaf: 0 to 100 scale where 0 is no effect and 100 is complete control; for Velvetleaf plant response rating: 0 to 100 scale
# Method in brief: (§2)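 Greenhouse herbicide screen, pre- and postemergence in parallel. Soil: loam plus sand. Formulation: non-phytotoxic solvent mix with surfactant. Postemergence stage: one to two leaves, 2–10 cm height. Evaluation: visual injury, compared with untreated controls, about 10 days after treatment.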
# soybean = assay: Test C pre-/postemergence test; format: in vivo, Glycine max
# Method in brief: as §1
# corn [1] = assay: Test A pre-/postemergence greenhouse test; format: in vivo, Zea mays; details: for Plant response rating, Corn: 0 to 100 scale where 0 is no effect and 100 is complete control; for Corn plant response rating: 0 to 100 scale
# Method in brief: as §2
# Italian ryegrass = assay: Test C pre-/postemergence test; format: in vivo, Lolium multiflorum
# Method in brief: as §1
# crabgrass [2] = assay: Test C pre-/postemergence test; format: in vivo, Digitaria sanguinalis
# Method in brief: as §1
# Goosegrass = assay: Test C pre-/postemergence test; format: in vivo, Eleusin indica
# Method in brief: as §1
# umbrella sedge = assay: Test C flooded paddy test; format: in vivo, Cyperus difformis; details: Flood, 62 g ai/ha; scale 0 to 100 (0 no effect, 100 complete control)
# Method in brief: (§3)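 Visual injury ratings against untreated controls, taken 13 to 15 days after compound was added to paddy water standing 3 cm above the soil.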
# bermudagrass = assay: Test C pre-/postemergence test; format: in vivo, Cynodon dactylon
# Method in brief: as §1
# crabgrass [3] = assay: Test A pre-/postemergence greenhouse test; format: in vivo, Digitaria sanguinalis; details: for Plant response rating, Crabgrass, Large: 0 to 100 scale where 0 is no effect and 100 is complete control; for Crabgrass, Large plant response rating: 0 to 100 scale
# Method in brief: as §2
# duck salad = assay: Test C flooded paddy test; format: in vivo, Heteranthera limosa; details: Flood, 62 g ai/ha; scale 0 to 100 (0 no effect, 100 complete control)
# Method in brief: as §3
# johnsongrass = assay: Test C pre-/postemergence test; format: in vivo, Sorghum halepense
# Method in brief: as §1
# pigweed = assay: Test C pre-/postemergence test; format: in vivo, Amaranthus retroflexus
# Method in brief: as §1
# corn [4] = assay: Test C pre-/postemergence test; format: in vivo, Zea mays
# Method in brief: as §1
# barnyardgrass = assay: Test A pre-/postemergence greenhouse test; format: in vivo, Echinochloa crus-galli; details: for Plant response rating, Barnyardgrass: 0 to 100 scale where 0 is no effect and 100 is complete control; for Barnyardgrass plant response rating: 0 to 100 scale
# Method in brief: as §2
# [5] = 62 g ai/ha, Preemergence, scale 0 to 100
# [6] = 125 g ai/ha, preemergence, scale 0 (no effect) to 100 (complete control)
# [7] = Postemergence, 62 g ai/ha, scale 0 to 100, 0 no effect, 100 complete control
# [8] = Postemergence, 125 g ai/ha, scale 0 to 100, 0 no effect, 100 complete control
# [9] = Postemergence, 250 g ai/ha, scale 0 to 100, 0 no effect, 100 complete control
# [10] = Preemergence, 31 g ai/ha, scale 0 to 100 (0 no effect, 100 complete control)
# [11] = preemergence, 250 g ai/ha, scale 0 (no effect) to 100 (complete control)
# [12] = Postemergence, 500 g ai/ha, 0 is no effect, 100 is complete control
# [13] = Preemergence, 125 g ai/ha, 0 no effect, 100 complete control
smiles,measurement,setting,value
Cn1nc(C(F)(F)F)c(C[S+]([O-])c2ccc(F)c[n+]2[O-])c1OCC(F)(F)F (stereo not shown) [Compound 67],"Nutsedge, Yellow plant response rating",yellow nutsedge; [5],40
same,"Nutsedge, Yellow plant response rating",yellow nutsedge; [6],40
same,"Plant response rating (0 to 100), Nutsedge, Yellow","yellow nutsedge; Postemergence, 31 g ai/ha",0
same,"Plant response rating, Nutsedge, Yellow",yellow nutsedge; [7],0
same,"Plant response rating, Nutsedge, Yellow",yellow nutsedge; [8],0
same,"Plant response rating, Nutsedge, Yellow",yellow nutsedge; [9],0
same,"Plant response rating, Nutsedge, Yellow",yellow nutsedge; [10],0
same,"Nutsedge, Yellow plant response rating",yellow nutsedge; [11],60
same,"Foxtail, Green plant response rating",green foxtail; [5],100
same,"Foxtail, Green plant response rating",green foxtail; [6],100
same,"Plant response rating (0 to 100), Foxtail, Green","green foxtail; Postemergence, 31 g ai/ha",0
same,"Plant response rating, Foxtail, Green",green foxtail; [7],45
same,"Plant response rating, Foxtail, Green",green foxtail; [8],60
same,"Plant response rating, Foxtail, Green",green foxtail; [9],90
same,"Plant response rating, Foxtail, Green",green foxtail; [10],100
same,"Foxtail, Green plant response rating",green foxtail; [11],100
same,"Plant response rating, Velvetleaf","velvetleaf; Postemergence, 125 g ai/ha",60
same,Velvetleaf plant response rating,velvetleaf; [12],90
same,Velvetleaf plant response rating,velvetleaf; [13],90
same,"Plant response rating, Velvetleaf","velvetleaf; Preemergence, 500 g ai/ha",100
same,Soybean plant response rating,soybean; [5],80
same,Soybean plant response rating,soybean; [6],100
same,"Plant response rating (0 to 100), Soybean","soybean; Postemergence, 31 g ai/ha",0
same,"Plant response rating (0 to 100), Soybean","soybean; Postemergence, 62 g ai/ha",40
same,"Plant response rating, Soybean",soybean; [8],50
same,"Plant response rating, Soybean",soybean; [9],80
same,"Plant response rating, Soybean",soybean; [10],0
same,Soybean plant response rating,soybean; [11],100
same,"Plant response rating, Corn","corn [1]; Postemergence, 125 g ai/ha",60
same,Corn plant response rating,corn [1]; [12],90
same,Corn plant response rating,corn [1]; [13],0
same,"Plant response rating, Corn","corn [1]; Preemergence, 500 g ai/ha",80
same,"Ryegrass, Italian plant response rating",Italian ryegrass; [5],100
same,"Ryegrass, Italian plant response rating",Italian ryegrass; [6],100
same,"Plant response rating (0 to 100), Ryegrass, Italian","Italian ryegrass; Postemergence, 31 g ai/ha",0
same,"Plant response rating (0 to 100), Ryegrass, Italian","Italian ryegrass; Postemergence, 62 g ai/ha",40
same,"Plant response rating, Ryegrass, Italian",Italian ryegrass; [8],90
same,"Plant response rating, Ryegrass, Italian",Italian ryegrass; [9],90
same,"Plant response rating, Ryegrass, Italian",Italian ryegrass; [10],100
same,"Ryegrass, Italian plant response rating",Italian ryegrass; [11],100
same,"Crabgrass, Large plant response rating",crabgrass [2]; [5],100
same,"Crabgrass, Large plant response rating",crabgrass [2]; [6],100
same,"Plant response rating (0 to 100), Crabgrass, Large","crabgrass [2]; Postemergence, 31 g ai/ha",0
same,"Plant response rating, Crabgrass, Large",crabgrass [2]; [7],0
same,"Plant response rating, Crabgrass, Large",crabgrass [2]; [8],10
same,"Plant response rating, Crabgrass, Large",crabgrass [2]; [9],60
same,"Plant response rating, Crabgrass, Large",crabgrass [2]; [10],60
same,"Crabgrass, Large plant response rating",crabgrass [2]; [11],100
same,Goosegrass plant response rating,Goosegrass; [5],100
same,Goosegrass plant response rating,Goosegrass; [6],100
same,"Plant response rating (0 to 100), Goosegrass","Goosegrass; Postemergence, 31 g ai/ha",0
same,"Plant response rating, Goosegrass",Goosegrass; [7],0
same,"Plant response rating, Goosegrass",Goosegrass; [8],50
same,"Plant response rating, Goosegrass",Goosegrass; [9],90
same,"Plant response rating, Goosegrass",Goosegrass; [10],100
same,Goosegrass plant response rating,Goosegrass; [11],100
same,"Plant response rating, Sedge, Umbrella",umbrella sedge,100
same,Bermudagrass plant response rating,"bermudagrass; 62 g ai/ha, Preemergence, scale 0 to 100 (0 no effect, 100 complete control)",100
same,Bermudagrass plant response rating,bermudagrass; [6],100
same,"Plant response rating (0 to 100), Bermudagrass","bermudagrass; Postemergence, 31 g ai/ha",0
same,"Plant response rating, Bermudagrass",bermudagrass; [7],0
same,"Plant response rating, Bermudagrass",bermudagrass; [8],0
same,"Plant response rating, Bermudagrass",bermudagrass; [9],70
same,"Plant response rating, Bermudagrass",bermudagrass; [10],90
same,Bermudagrass plant response rating,bermudagrass; [11],100
same,"Plant response rating, Crabgrass, Large","crabgrass [3]; Postemergence, 125 g ai/ha",90
same,"Crabgrass, Large plant response rating",crabgrass [3]; [12],90
same,"Crabgrass, Large plant response rating",crabgrass [3]; [13],100
same,"Plant response rating, Crabgrass, Large","crabgrass [3]; Preemergence, 500 g ai/ha",100
same,"Plant response rating, Ducksalad",duck salad,100
same,Johnsongrass plant response rating,johnsongrass; [5],70
same,Johnsongrass plant response rating,johnsongrass; [6],80
same,"Plant response rating (0 to 100), Johnsongrass","johnsongrass; Postemergence, 31 g ai/ha",0
same,"Plant response rating, Johnsongrass",johnsongrass; [7],0
same,"Plant response rating, Johnsongrass",johnsongrass; [8],0
same,"Plant response rating, Johnsongrass",johnsongrass; [9],0
same,"Plant response rating, Johnsongrass",johnsongrass; [10],65
same,Johnsongrass plant response rating,johnsongrass; [11],85
same,Pigweed plant response rating,pigweed; [5],55
same,Pigweed plant response rating,pigweed; [6],100
same,"Plant response rating (0 to 100), Pigweed","pigweed; Postemergence, 31 g ai/ha",0
same,"Plant response rating (0 to 100), Pigweed","pigweed; Postemergence, 62 g ai/ha",0
same,"Plant response rating, Pigweed",pigweed; [8],0
same,"Plant response rating, Pigweed",pigweed; [9],60
same,"Plant response rating, Pigweed",pigweed; [10],50
same,Pigweed plant response rating,pigweed; [11],100
same,Corn plant response rating,corn [4]; [5],95
same,Corn plant response rating,corn [4]; [6],95
same,"Plant response rating (0 to 100), Corn","corn [4]; Postemergence, 31 g ai/ha",0
same,"Plant response rating, Corn",corn [4]; [7],0
same,"Plant response rating, Corn",corn [4]; [9],0
same,"Plant response rating, Corn",corn [4]; [10],45
same,Corn plant response rating,corn [4]; [11],100
same,"Plant response rating, Barnyardgrass","barnyardgrass; Postemergence, 125 g ai/ha",90
same,Barnyardgrass plant response rating,barnyardgrass; [12],90
same,Barnyardgrass plant response rating,barnyardgrass; [13],90
same,"Plant response rating, Barnyardgrass","barnyardgrass; Preemergence, 500 g ai/ha",100
